Results as given in PMC1810525, “Antagonism of the prostaglandin D2 receptor CRTH2 attenuates asthma pathology in mouse eosinophilic airway inflammation” (Respiratory Research, 2007).

Legend:
Details in all cases: 10 μM
AT2 = biological target: T1, AT2 (Homo sapiens, UniProt P50052); experiment: Profiling panel, radioligand binding AT2
T1 sequence (P50052 1-363): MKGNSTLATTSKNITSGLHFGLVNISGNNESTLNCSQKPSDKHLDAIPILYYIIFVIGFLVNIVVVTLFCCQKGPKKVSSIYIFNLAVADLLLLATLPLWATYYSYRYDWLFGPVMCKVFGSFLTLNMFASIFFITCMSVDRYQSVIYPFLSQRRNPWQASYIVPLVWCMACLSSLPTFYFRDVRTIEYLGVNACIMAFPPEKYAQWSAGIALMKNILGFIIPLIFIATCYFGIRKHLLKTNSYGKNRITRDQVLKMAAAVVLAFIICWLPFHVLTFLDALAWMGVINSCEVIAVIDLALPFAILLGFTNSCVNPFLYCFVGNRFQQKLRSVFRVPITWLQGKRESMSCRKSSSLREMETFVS
Method: (§1) All assays were performed using recombinant human receptors and enzymes, and included the appropriate controls for assay validation. Enzymatic and binding assays, except for muscarinic binding, were performed by CEREP in vitro pharmacology profiling services. […] For stimulation of C3a, C5a, and ChemR23 receptors in InsP assays the following agonists were used: human recombinant C3a (C3a receptor), human recombinant C5a (C5a receptor), and the nonapeptide Chemerin (ChemR23).

C3a = biological target: T2, C3a (Homo sapiens, UniProt Q16581); experiment: Profiling panel, functional InsP C3a receptor; format: cell-based
T2 sequence (Q16581 1-482): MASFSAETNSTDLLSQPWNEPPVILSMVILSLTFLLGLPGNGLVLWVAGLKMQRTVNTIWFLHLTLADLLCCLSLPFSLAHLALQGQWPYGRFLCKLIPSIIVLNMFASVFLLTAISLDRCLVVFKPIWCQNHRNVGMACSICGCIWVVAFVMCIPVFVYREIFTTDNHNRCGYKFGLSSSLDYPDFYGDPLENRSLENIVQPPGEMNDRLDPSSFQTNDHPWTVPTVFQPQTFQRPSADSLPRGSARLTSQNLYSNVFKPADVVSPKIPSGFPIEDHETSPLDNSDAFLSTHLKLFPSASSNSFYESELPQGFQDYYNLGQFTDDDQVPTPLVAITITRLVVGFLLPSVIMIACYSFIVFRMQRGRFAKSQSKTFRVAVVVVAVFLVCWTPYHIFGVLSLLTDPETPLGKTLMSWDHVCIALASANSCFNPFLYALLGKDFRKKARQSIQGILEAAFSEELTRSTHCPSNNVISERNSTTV

CXCR2 = biological target: T3, CXCR2 (Homo sapiens, UniProt P25025); experiment: Profiling panel, radioligand binding CXCR2
T3 sequence (P25025 1-360): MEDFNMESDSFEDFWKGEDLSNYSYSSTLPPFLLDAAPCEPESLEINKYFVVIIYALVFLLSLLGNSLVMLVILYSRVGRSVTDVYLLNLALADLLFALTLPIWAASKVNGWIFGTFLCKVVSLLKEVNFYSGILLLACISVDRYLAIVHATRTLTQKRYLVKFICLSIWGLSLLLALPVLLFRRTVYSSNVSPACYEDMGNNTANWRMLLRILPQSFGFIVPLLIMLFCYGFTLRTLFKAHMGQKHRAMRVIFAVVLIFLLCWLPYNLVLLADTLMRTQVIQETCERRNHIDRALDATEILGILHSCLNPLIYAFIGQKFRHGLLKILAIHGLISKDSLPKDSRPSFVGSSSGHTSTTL
Method: as §1

CN(C1CCc2c(c3ccccc3n2CC(=O)O)C1)S(=O)(=O)c1ccc(F)cc1 (stereo not drawn) [TM30089]
% of control AT2 (AT2): 98.1 ± 1.4%
% of control C3a (C3a): 88.7 ± 5.9%
% of control CXCR2 (CXCR2): 104.6 ± 6.1%
